Consider one molecule from ChEMBL document CHEMBL1201862, “PubChem BioAssay data set” (2004).

Each structure is given as a SMILES string.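 48-hour exposure; five concentrations; linearly interpolated endpoints. GI50 is the concentration that inhibits growth by half.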 Activity calls are given as the source filed them. Rule as the data show it: active = GI50 up to about 1.1 µM and inactive = higher.

Some test systems named below: 786-0; OVCAR-8; CAKI-1; SN12C; MDA-MB-435; CCRF-CEM; SK-MEL-28; SW-620; SK-MEL-2; NCI/ADR-RES; SNB-75; SNB-19; IGROV-1; NCI-H23; Hs-578T; HCT-15; MCF7; COLO 205; DU-145; MOLT-4.
What all share (assay): NCI-60 cell line screen, 48 h

On to `Oc1ccc2c(c1)CCc1c-2n(CCN2CCOCC2)c2ccc(O)cc12`, for which the GI50 in the assay on 786-0 is 43.5 µM (inactive); in the assay on OVCAR-8, 20.2 µM (inactive); with CAKI-1 it was 24.8 µM (inactive); in the assay on SN12C it was > 100 µM (inactive); with MDA-MB-435 it was 44.4 µM (inactive); in the assay with CCRF-CEM it was 38.2 µM (inactive). For the same molecule, the GI50 was 29.3 µM (inactive) in the assay with SK-MEL-28; 44.9 µM (inactive) with SW-620; 27.1 µM (inactive) in the assay with SK-MEL-2; 21 µM (inactive) with NCI/ADR-RES; 16.8 µM (inactive) in the assay on SNB-75; 25.1 µM (inactive) in the assay on SNB-19. For the same molecule, the GI50 in the assay on IGROV-1 is 11 µM (inactive); in the assay with NCI-H23, 27.7 µM (inactive); with Hs-578T it was 32.8 µM (inactive); in the assay with HCT-15, 36.1 µM; in the assay with MCF7, 23.5 µM (inactive); with COLO 205 it was 56.2 µM (inactive). Further, the GI50 in the assay with DU-145 is 33 µM (inactive); in the assay on MOLT-4, 33.4 µM (inactive).
